Test results taken from patent US12508275B2, “Neomycin based compounds, and pharmaceutical use thereof” (UNIVERSITÉ COTE D'AZUR, priority 2019, dated 2025).

Legend:
[1] = tested on: Patient derived GSC (GB5); assay: Effect of compound treatment on GSC phenotype (adhesion, morphology), GB5; type: cell-based, human; conditions: three days
From the text: FIG. 1: phase contrast images of GB5 morphology untreated (CTL DMSO) or treated with the indicated compound (“Cpd” denotes compound) at the indicated concentration. Control cells grow as non-adherent spheroids composed of numerous GSC. When differentiated the cells become adherent and spread on the culture dish.
B—Cell culture: Patient-derived cells GB5 were isolated from surgical resection of human primary GBM provided by the department of neurosurgery of the University Hospital of Nice. TG6 (patient-derived cell from primary GBM) and HNNSC25 (Human Normal Neural Stem Cells) have been provided by Dr Hervé Chneiweiss, University of Pierre and Marie Curie, Paris. The resulting primary cultures (GB5, TG6, HNNSC25) were grown in NS34+ medium containing EGF and bFGF (DMEM-F12 1/1 ratio, 10 mM glutamine, 10 mM Hepes, 0.025% Sodium bicarbonate, N2, G5, and B27).
Patient derived GSC (GB5) were treated with growing concentration of Compounds 9a-b and 18a-b (10 to 100 uM) during three days). […] Similar results have been obtained with TG6.

NESTIN expression in GB5 = assay: NESTIN expression by immunofluorescence in GB5; type: cell-based, human; conditions: GB5, seven days, growing concentrations
Protocol: (§1) FIG. 2: Compounds 9a-b and 18a-b effect on stemness marker expression, clonal expansion and mitosis in GB5 cells. (A) NESTIN expression was assessed by immunofluorescence in GB5 treated with increasing amount of Compounds 9a-b and 18a. The number of NESTIN positive cells was counted for each treatment and express as percentage of the control (100%). The results are the meaning of at least two separate experiments. […] (C) Clonal expansion analysis was performed with GB5 cells as described in the material and method section. Two and three weeks later, the number of spheroids is counted and reported as percentage of the initial number of cells in the well. The results are the meaning of a minimum of two separate experiments. (D) The number of mitosis in the culture was determined by the detection of the number of cells positive for histone H3 phosphorylated on ser-10 (H3-ser10). H3-ser10 expression was assessed by immunofluorescence in GB5 treated with increasing amount of Compounds 9a-b and 18a. The number of positive cells was counted for each treatment and express as percentage of the control (100%). The results are the meaning of at least two separate experiments.
(§2) III—Immunofluorescence assay: TG6 and GB5 were seeded at 2000 cells/well in 24 wells plate in NS34+ alone or containing 5, 7.5, 10, 12.5, 15, 20 and 25 uM of Compounds 9a-b and 18a-b. Cultures were incubated 4 days and the cells were fixed with 4% paraformaldehyde for 10 min at room temperature then washed with PBS. Cells were then incubated with ammonium chloride at 20 mM 5 min at room temperature and washed 5 times with PBS. Blocking and hybridization were realized in PBS containing 10% FCS and 0.1% Triton X100. Anti-Nestin and anti-H3Phospho serine 10 antibodies were incubated 2 hours at room temperature then washed with PBS. Fluorescence coupled secondary antibodies and Hoechst 33342 nuclei counterstaining reagent were hybridized one hour at room temperature. Cells were mounted with anti-fading agent then imaged, counted and quantified using fluorescent microscopy (TiE Nikon) and NiS software (Nikon).
Patient derived GSC (GB5) have been treated during seven days, with growing concentrations of compounds that have been capable of inducing changes of GSC morphology. To assess the consequence on stemness maintenance, we observed, by immunofluorescence, the expression of stemness and progenitor cells such as the NESTIN protein. […] The strongest effect has been obtained with Compounds 9a treatment (IC50=10 uM).

GB5 cells [2] = assay: Clonal expansion (clonal proliferation) of GB5; type: cell-based, human; conditions: GB5, spheroids counted after two and three weeks
Protocol: as §1
Clonal proliferation: TG6 and GB5 were seeded at 10 cells/well in 96 wells plate in NS34+ medium alone or containing growing concentration of Compounds 9a-b and 18a-b. Immediately after seeding, the real number of cells in the well was determined by direct count. Two and three weeks later, the resulting number of spheroids in each well was evaluated by a direct count. The % of clonal efficiency was calculated in dividing […].
(§3) It was further investigated the effects of selected compounds on GSC clonal expansion as well as their capacity of mitosis (FIGS. 2B and C). Compounds 9a-b and 18a treatment altered GSC clonal expansion and mitosis. The most efficient inhibition of clonal expansion was provided by Compound 9a treatment (IC50<10 uM) while both Compounds 9a-b were the most efficient for mitosis inhibition (IC50<10 uM) (FIGS. 2C and D).

GB5 cells [3] = assay: Mitosis: cells positive for histone H3 phosphorylated on ser-10, GB5; type: cell-based, human; conditions: GB5, H3-ser10 positive cells
Protocol: as §1, §2, §3

GB5 = assay: XTT toxicity assay on GSC (GB5); type: cell-based
Protocol: FIG. 4: Determination of compound toxicity on GSC and normal human cells. (A) GB5 were incubated with growing concentration of Compounds 9a-b and 18a. (B) human normal neural stem cell (NNSC), human normal kidney cells (NHEK), human normal hepatocytes (HEPRG) and (C) human endothelial cells (HUVEC) were treated with growing concentration of Compound 9a. 7 days later, the cells were subjected to an XTT assays as described in the method section. The results are the meaning of at least two separate experiments. Cell death was confirmed by trypan blue staining (not shown).
II—XTT assay: TG6 and GB5 were seeded at 2000 cells/well in 96 wells plate in NS34+ alone or containing 10, 20, 25, 50 and 100 uM of Compounds 9a-b and 18a-b. Cultures were incubated 4 days and the cell proliferation was evaluated as indicated by the manufacturer.
V—Toxicity tests: NNSC, GB5, TG6, HEK293, and HepaRG, HUVEC were seeded at 2000 cells/well in 96 wells plate in their respective culture mediums alone or containing growing concentration from 10 to 500 uM of Compounds 9a-b. Cultures were incubated 4 days and the cellular toxicity has been evaluated by XTT assays. Cell viability has been also assessed by counting living and dead cells with trypan blue staining.
XTT assays allows, through cell metabolism measurement, to determine a cytotoxic/cytostatic effects. Compounds 9a-b and 18a were tested for their eventual toxicity by XTT assays as described in the material and method section. At the working concentrations 10 to 25 uM, the compounds are not toxic for GSC (FIG. 4A). […] Compound 9a toxicity was further tested on normal neural stem cells (NNSC), human kidney (NHEK), human hepatocytes (HEPRG) and human endothelial cells (HUVEC). The compound is not toxic on NNSC, NHEK, HEPRG and HUVEC cells when used between 10 to 50 uM. At 100 uM and above, Compound 9a was toxic (FIG. 4).

GB5 cells [4] = assay: TMZ assay: GSC sensitivity to Temozolomide (XTT); type: cell-based, human; conditions: three days; for increase of TMZ sensitivity: GB5, TMZ 400 uM plus compound at 10 uM; for increase of TMZ sensitivity, maximal effect: GB5, TMZ 400 uM plus compound at 50 uM
Protocol: FIG. 5: Sensitivity to TMZ was assessed by comparing the percentage of dead cells between TMZ treated GB5 and TMZ treated GB5 in combination with Compound 9a. GB5 cells have been treated with 400 uM TMZ alone or in combination with growing concentrations of Compounds 9a-b and 18b. The results are the meaning of at least two separate experiments.
IV—TMZ assay: TG6 and GB5 were seeded at 2000 cells/well in 96 wells plate in NS34+ or treated with medium containing 400 uM of TMZ alone or mixed with 10, 25 and 50 uM of Compounds 9a-b and 18a-b. Cultures were incubated 4 days and the cell viability has been evaluated by XTT assays and a count of living and dead cells with trypan blue staining.
Temozolomide is the chemotherapy of reference for GBM treatment. In order to assess whether the compounds might sensitize GSC to TMZ, TMZ (400 uM) pretreated GB5 cells were incubated with 10, 25 and 50 uM of Compounds 9a-b and 18b. Three days later the experiment is stop and the cells were subjected to an XTT assays. […] Cell toxicity was confirmed by trypan blue staining.

Row | SMILES | adhesion and changes in GSC morphology ([1]; GB5, 10 uM) | NESTIN expression (NESTIN expression in GB5) | GSC clonal expansion (GB5 cells [2]) | GSC mitosis (GB5 cells [3]) | toxicity for GSC (XTT) (GB5; GB5, 50 uM and higher) | toxicity for GSC (XTT) (GB5; GB5, 10 to 25 uM) | IC50 (GB5 cells [3]; Homo sapiens, read-out: mitosis inhibition IC50) | increase of TMZ sensitivity (GB5 cells [4]) | increase of TMZ sensitivity, maximal effect (GB5 cells [4]) | adhesion and changes in GSC morphology ([1]; GB5, 25 uM)
1 | NCCCCNCCCNC(=O)c1csc(-c2csc(CCNC(=O)CCC(=O)NCC3OC(OC4C(O)C(N)CC(N)C4OC4OC(CN)C(O)C(O)C4N)C(O)C3OC3OC(CN)C(O)C(O)C3N)n2)n1 (stereo not drawn) [Compound 18a, 4-((2-(4-((3-((4-aminobutyl)amino)propyl)carbamoyl)-[2,4′-bithiazol]-2′-yl)ethyl)amino)-4-oxobutanoic-amido-neomycin] | induced adhesion and changes in GSC morphology | drop in NESTIN expression | altered | altered | relative toxicity | not toxic |  |  |  | 
2 | NCC1OC(OC2C(Cn3cc(CCC(=O)NCCc4nc(-c5nc(C(=O)NCCCCN=C(N)N)cs5)cs4)nn3)OC(OC3C(O)C(N)CC(N)C3OC3OC(CN)C(O)C(O)C3N)C2O)C(N)C(O)C1O (stereo not drawn) [Compound 9b, N-(4-((Diaminomethylene)amino)butyl)-2′-(2-(3-(1-methyl-1H-1,2,3-triazol-4-yl)propanamido)ethyl)-[2,4′-bithiazole]-4-carboxamide-neomycin] | induced adhesion and changes in GSC morphology | drop in NESTIN expression | altered | altered | relative toxicity | not toxic | < 10 µM | 1.8 fold | 2.8 fold | 
3 | NCCCNC(=O)c1csc(-c2csc(CCNC(=O)CCC(=O)NCC3OC(OC4C(O)C(N)CC(N)C4OC4OC(CN)C(O)C(O)C4N)C(O)C3OC3OC(CN)C(O)C(O)C3N)n2)n1 (stereo not drawn) [Compound 18b, 4-((2-(4-((3-aminopropyl)carbamoyl)-[2,4′-bithiazol]-2′-yl)ethyl)amino)-4-oxobutanoic-amido-neomycin] |  |  |  |  |  |  |  | 1.7 fold | 3 fold | induced adhesion and changes in GSC morphology
